Measurements published in PubChem BioAssay (NCI).
Several values for one entry are separate records, joined by “and”; a condition that tells them apart may be missing. Identical values can stand only once.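 Five compound concentrations were applied to cells in 96-well plates for 48 hours; endpoints were derived by simple linear interpolation of the resulting dose-response curve. TGI: concentration producing complete growth inhibition.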 Where a SMILES comes first, the peptide text is derived from it. The star is where a group is joined. Boc = CC(C)(C)OC(=O)*; tBu = CC(C)(C)*

Legend:
Experiment in all cases: DTP human tumour cell line panel, 48 h
[1] = system: HT29 colon
[2] = system: PC-3 prostate
[3] = system: SF-539 CNS
[4] = system: KM12 colon
[5] = system: EKVX NSCLC
[6] = system: BT-549 breast
[7] = system: SF-268 CNS
[8] = system: MDA-MB-231 breast
[9] = system: OVCAR-3 ovarian
[10] = system: ACHN renal
[11] = system: HL-60(TB) leukemia
[12] = system: HOP-62 NSCLC
[13] = system: TK-10 renal
[14] = system: MALME-3M melanoma
[15] = system: OVCAR-4 ovarian
[16] = system: UACC-62 melanoma
[17] = system: SK-MEL-2 melanoma
[18] = system: CCRF-CEM leukemia
[19] = system: NCI/ADR-RES ovarian

| Compound | TGI [1] | TGI [2] | TGI [3] | TGI [4] | TGI [5] | TGI [6] | TGI [7] | TGI [8] | TGI [9] | TGI [10] | TGI [11] | TGI [12] | TGI [13] | TGI [14] | TGI [15] | TGI [16] | TGI [17] [µM] | TGI [18] | TGI [19] |
| --- | --- | --- | --- | --- | --- | --- | --- | --- | --- | --- | --- | --- | --- | --- | --- | --- | --- | --- | --- |
| N#Cc1c(N)nc2n[nH]c(N)c2c1-c1ccccc1 | 57.7 µM | 35.5 µM | 21.1 µM | 79.5 µM | 55 µM | 40.2 µM | 29.2 µM | 38.7 µM | 20.5 µM | 28.9 µM | 71.1 µM | 63.9 µM | > 27.1 µM | 22 µM | > 100 µM | 8.02 µM | 12.8 | > 100 µM | 48.5 µM |
| CC1=NNC(=O)[C@H]2[C@H]1CCC1[C@@H]2CC[C@]2(C)[C@@H](O)CC[C@@H]12 (stereo not given in full) | > 100 µM | > 100 µM | > 100 µM | > 100 µM | > 100 µM | > 100 µM | > 100 µM | > 100 µM | > 100 µM | > 100 µM | > 100 µM | > 100 µM | > 100 µM | > 100 µM | > 100 µM | > 100 µM | > 100 | > 100 µM | > 100 µM |
| CC(C)CCCC(C)[C@H]1CCC2[C@@H]3CCC4Cc5nc6c(nc5C[C@]4(C)C3CC[C@@]21C)CC1CC[C@@H]2C(CC[C@@]3(C)C2CC[C@@H]3O)[C@@]1(C)C6 (stereo not given in full) | > 100 µM | > 100 µM | > 100 µM | > 100 µM | > 100 µM | > 100 µM | > 100 µM | > 100 µM | > 100 µM | > 100 µM | > 100 µM | > 100 µM | > 100 µM | > 100 µM | > 100 µM | > 100 µM | > 100 | > 100 µM | > 100 µM |
| O=C1c2ccccc2/C=C\C(c2ccccc2)=N/N1c1ccccc1Cl | 37 µM | 28.6 µM | > 100 µM | 64.4 µM | > 100 µM | 28 µM | > 100 µM | 49.2 µM | > 100 µM | > 100 µM | 54.8 µM | 92.8 µM | > 100 µM | 71.4 µM | 97.2 µM | – | > 100 | > 100 µM | 63.5 µM |
| C=C(Cl)C(Cl)(CBr)CCC(Br)C(C)(C)Cl (stereo not given) | 2.19 µM and 1.94 µM and 2.1 µM | 2.42 µM and 2.17 µM and 3.02 µM | 1.12 µM and 2.69 µM and 3.68 µM | 3.57 µM and 2.83 µM and 6.38 µM | 7.36 µM and 4.19 µM and 12.8 µM | 7.21 µM and 15.7 µM and 9.1 µM | 3.13 µM and 1.97 µM and 9.92 µM | 2.92 µM and 5.94 µM and 27.2 µM | 3.09 µM and 1.96 µM and 4.78 µM | 2.62 µM and 2.63 µM and 3.13 µM | 3 µM and 3.02 µM and 6.99 µM | 1.84 µM and 2.01 µM and 2.76 µM | 3.64 µM and 3.87 µM and 7.61 µM | 31.9 µM and 21 µM and 30.8 µM | 7.93 µM and 4.62 µM and 31.9 µM | 12 µM and 15.2 µM and 2.68 µM | 4.17 | 45.6 µM and 35 µM and > 100 µM | 7.18 µM and 4.48 µM and 33.2 µM |
| COc1cccc(N2C(=O)C3CC(CC(C)(C)C)c4c([nH]c5ccccc45)C3C2=O)c1 (stereo not given) | > 10 µM | > 10 µM | 8.42 µM | > 10 µM | > 10 µM | > 10 µM | > 10 µM | > 10 µM | > 10 µM | > 10 µM | > 10 µM | > 10 µM | > 10 µM | > 10 µM | > 10 µM | > 10 µM | > 10 | > 10 µM | > 10 µM |
| CCN(CC)Cc1ccc(Nc2c3ccccc3nc3ccccc23)cc1 | 22.3 µM | 3.68 µM | 3.45 µM | 13.1 µM | 26.2 µM | 23.6 µM | 9.38 µM | 4.64 µM | 12.8 µM | 1.22 µM | > 100 µM | 6.84 µM | 18.8 µM | 3.61 µM | 7.64 µM | 3.66 µM | 7.27 | 8.28 µM | 22.4 µM |
| CC(OC(C)(C)C)C(NC(=O)C(N)CCCCNC(=O)OC(C)(C)C)C(=O)NC(Cc1ccccc1)C(=O)O (stereo not given) (H-Lys(Boc)-Thr(tBu)-Phe-OH; configuration not given here) | > 100 µM | > 100 µM | > 100 µM | > 100 µM | > 100 µM | > 100 µM | > 100 µM | > 100 µM | > 100 µM | > 100 µM | > 100 µM | > 100 µM | > 100 µM | > 100 µM | > 100 µM | > 100 µM | > 100 | > 100 µM | > 100 µM |
| CO[C@]12C[C@@H](CNC(=O)c3cc(Br)c[nH]3)O[C@H]1NC(=O)N2 | > 100 µM | > 100 µM | > 100 µM | > 100 µM | > 100 µM | > 100 µM | > 100 µM | > 100 µM | > 100 µM | > 100 µM | > 100 µM | > 100 µM | > 100 µM | > 100 µM | > 100 µM | > 100 µM | > 100 | > 100 µM | > 100 µM |
